Data: patent publication US8507547B2, “Anti-fatigue agents and oral compositions containing andrographolide as active ingredient” (Suntory Holdings Limited, priority 2007, dated 2013)

Test system: Balb/c mice
Experiment: Water-immersion and sleep-disturbance test (weight-loaded forced swimming test, swimming time)
Type: in vivo
Source text: The first test is measurement of a swimming time in a water-immersion and sleep-disturbance test. This is described in detail below in Example 1. Mice raised in an environment, such as a water-immersed environment, where they were not allowed to take enough sleep or to take a comfortable posture so that they could take neither physical nor mental rest were weighted and forced to swim, and a length of time that passed until noses of the mice sank under the water for a period of 10 seconds or longer was measured (weight-loaded forced swimming test) to determine their fatigue level.
That is to say, since this animal model is a physical and mental fatigue model as well as an organ fatigue model described below, anti-fatigue action against physical and/or mental fatigue would be confirmed if the swimming time becomes longer as a result of administration of the test substance. Such anti-fatigue action is considered to be involved in reduction in fatigue stress, maintenance of physical energy under fatigue conditions (enhancement of body strength), improvement in endurance, and the like.
Effect of andrographolide on fatigue from water immersion and sleep disturbance was examined using a partially modified method of Tanaka et al. (Neuroscience Let. 352, 159-162, 2003). […] Four out of the five groups were reared as water-immersed groups; the groups were kept in cages in such a manner that each of the cages was filled with tap water at 23° C. with a water depth of 7 mm, instead of a floor covering, so that the mice were immersed in water and deprived of sleep. The mice were immersed in water for two days, andrographolide (Aldrich corp., purity 98%) was forcibly administered orally to the mice with doses of 0.5, 2, 8 mg per kilogram of body weight once daily during the two days (water-immersed and andrographolide-administered group). As a control group, one of the groups was immersed in water for two days, and distilled water was forcibly given orally to the group once daily during the two days (water-immersed control group). The remaining one of the five groups was reared as a normally-reared group; this group was kept in a cage with a normal floor covering, and distilled water was forcibly given orally to the group once daily during the two-day rearing (normally-reared control group). After the two days, each of the mice was provided with a weight corresponding to 8% of its body weight, which weight was attached to its tale, and then the mice were forced to swim in a water tank having a diameter of 18 cm and filled with water having a depth of 30 cm. A length of time that passed until the mice sank under water for a period of 10 seconds or longer (swimming time) was measured (weight-loaded forced swimming test).
The swimming time of the mice of the water-immersed group was shorter than that of the mice of the normally-reared group because of fatigue from the water immersion and sleep disturbance. The effect of andrographolide on the fatigue from the water immersion and sleep disturbance was examined by determining recovery of a reduction in the swimming time of the mice of the water-immersed group after the administration of andrographolide.
In accordance with the procedure described in Example 1, effect on water-immersion and sleep-disturbance fatigue was examined in a case in which andrographolide was administered alone to mice, a case in which alpha-lipoic acid was administered alone to mice, and a case in which a combination of andrographolide and alpha-lipoic acid was administered to mice. Eight-week-old male Balb/c mice were used as a test animal. […] Four out of the five groups served as water-immersed groups, and each of the groups was kept in a cage filled with tap water at 23° C. with a water depth of 7 mm, instead of a floor covering, so that the mice were immersed in water and deprived of sleep. […]

Which results are given for `O=C(O)CCCCC1CCSS1` (stereo not drawn) [alpha-lipoic acid, 1,2-dithiolane-3-pentanoic acid, reference compound]?
shortening of the swimming time (Example 5, FIG. 5, andrographolide 0.25 mg/kg (5a), alpha-lipoic acid 50 mg/kg (5b) or both (5c), orally once daily during two days of water immersion): prevented from shortening; increase rate of the swimming time (Example 5, swimming time of normally-reared group minus water-immersed control group = 100%, andrographolide 0.25 mg/kg, alpha-lipoic acid 50 mg/kg, alone or combined): 13%; anti-fatigue action in the fatigue animal model of mice (alpha-lipoic acid 50 mg/kg alone or with andrographolide 0.25 mg/kg, during fatigue stress): anti-fatigue action was produced
